Measured values published in patent US10160747B2, “Compounds and methods for kinase modulation, and indications therefor” (Plexxikon Inc., priority 2016, dated 2018).

How the values were obtained:
[1] = system: MOLM-14 D835Y (endogenous FLT3 ITD and transfected FLT3 D835Y); assay: MOLM-14 D835Y cell proliferation assay (CellTiter-Glo); type: cell-based; settings: Homo sapiens, MOLM-14, 72 h; 3 d growth, GMean
Method in brief: (§1)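 Three-day proliferation at 37 °C/5% CO2 of FLT3-ITD MOLM-14 lines with D835Y or F691L mutation, seeded 1×10^4 per well. Compounds at eight points, top 1 μM final, 0.2% DMSO. ATP luminescence (CellTiter-Glo) gives IC50.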

BA/F3-FLT3-ITD + D835Y = molecular target: T1, BA/F3-FLT3-ITD + D835Y (Homo sapiens, UniProt P36888, D835Y, cells depend on it, form not given); assay: Engineered BA/F3 cell growth assay, FLT3 ITD/D835Y; type: cell-based, murine; settings: 3 d growth
T1 sequence (P36888 with tags, fused parts or gaps INS600HVDFREYEYD/D835Y): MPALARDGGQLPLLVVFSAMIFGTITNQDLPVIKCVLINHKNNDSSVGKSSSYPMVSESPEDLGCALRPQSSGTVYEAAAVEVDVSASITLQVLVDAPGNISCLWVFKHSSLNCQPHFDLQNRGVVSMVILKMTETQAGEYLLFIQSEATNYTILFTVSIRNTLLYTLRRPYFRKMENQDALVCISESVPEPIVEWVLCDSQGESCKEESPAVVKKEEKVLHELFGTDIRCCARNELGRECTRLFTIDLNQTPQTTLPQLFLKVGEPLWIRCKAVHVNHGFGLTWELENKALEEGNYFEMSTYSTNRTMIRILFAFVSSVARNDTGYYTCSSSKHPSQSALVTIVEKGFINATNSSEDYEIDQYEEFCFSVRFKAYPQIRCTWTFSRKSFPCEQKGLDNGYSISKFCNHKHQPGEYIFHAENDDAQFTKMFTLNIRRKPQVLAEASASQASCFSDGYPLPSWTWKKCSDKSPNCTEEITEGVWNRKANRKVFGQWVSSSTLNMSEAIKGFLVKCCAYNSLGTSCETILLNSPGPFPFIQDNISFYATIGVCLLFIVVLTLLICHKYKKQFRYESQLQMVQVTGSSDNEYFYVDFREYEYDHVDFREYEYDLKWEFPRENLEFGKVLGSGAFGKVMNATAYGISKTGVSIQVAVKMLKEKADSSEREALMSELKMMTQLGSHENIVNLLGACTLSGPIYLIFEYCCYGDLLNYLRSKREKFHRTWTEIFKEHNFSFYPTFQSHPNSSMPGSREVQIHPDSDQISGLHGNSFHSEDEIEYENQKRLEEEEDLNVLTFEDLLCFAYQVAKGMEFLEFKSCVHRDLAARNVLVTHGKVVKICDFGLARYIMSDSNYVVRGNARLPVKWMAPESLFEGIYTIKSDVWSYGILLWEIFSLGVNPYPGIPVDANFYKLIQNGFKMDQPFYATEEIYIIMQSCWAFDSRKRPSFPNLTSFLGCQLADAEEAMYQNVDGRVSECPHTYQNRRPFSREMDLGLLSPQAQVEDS
Method in brief: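 Murine Ba/F3 cells transfected with full-length FLT3 ITD/D835Y, grown without IL-3 so growth depends on FLT3. Seeded at 1×10^4 cells/well, 8-point 1:3 series to 1 μM top (0.2% DMSO), 3 days at 37 °C. CellTiter-Glo luminescence (ATP) versus concentration gave IC50.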

[2] = system: MOLM-14 F691L (endogenous FLT3 ITD and transfected FLT3 F691L); assay: MOLM-14 F691L cell proliferation assay (CellTiter-Glo); type: cell-based; settings: Homo sapiens, MOLM-14, 72 h; 3 d growth, GMean
Method in brief: as §1

O=C(Cc1ccc(-c2cnc(Nc3cnn(C4CC4)c3)nc2)cc1F)Nc1cncc(C(F)(F)F)c1 [Compound P-0238, 2-[4-[2-[(1-cyclopropylpyrazol-4-yl)amino]pyrimidin-5-yl]-2-fluoro-phenyl]-N-[5-(trifluoromethyl)-3-pyridyl]acetamide]
0.0001 to 10 µM: IC50 [1] | GI50 (BA/F3-FLT3-ITD + D835Y) | IC50 [2]

COc1ncc(NC(=O)Cc2ccc(-c3cnc4[nH]c(-c5cnn(C(F)F)c5)cc4c3)cc2F)cc1C(F)(F)F [Compound P-0015, 2-[4-[2-[1-(difluoromethyl)pyrazol-4-yl]-1H-pyrrolo[2,3-b]pyridin-5-yl]-2-fluoro-phenyl]-N-[6-methoxy-5-(trifluoromethyl)-3-pyridyl]acetamide]
0.0001 to 10 µM: IC50 [1] | GI50 (BA/F3-FLT3-ITD + D835Y) | IC50 [2]

COCCn1cc(Nc2ncc(-c3ccc(CC(=O)Nc4ccc(C(F)(F)F)nc4)c(F)c3)cn2)cn1 [Compound P-0268, 2-[2-fluoro-4-[2-[[1-(2-methoxyethyl)pyrazol-4-yl]amino]pyrimidin-5-yl]phenyl]-N-[6-(trifluoromethyl)-3-pyridyl]acetamide]
0.0001 to 10 µM: IC50 [1] | GI50 (BA/F3-FLT3-ITD + D835Y) | IC50 [2]

CCn1cc(Nc2ncc(-c3ccc(CC(=O)Nc4ccc(C(F)(F)F)cn4)cc3)cn2)cn1 [Compound P-0251, 2-[4-[2-[(1-ethylpyrazol-4-yl)amino]pyrimidin-5-yl]phenyl]-N-[5-(trifluoromethyl)-2-pyridyl]acetamide]
0.0001 to 10 µM: IC50 [1] | GI50 (BA/F3-FLT3-ITD + D835Y) | IC50 [2]

COc1ncc(NC(=O)Cc2ccc(-c3cnc4[nH]nc(C5CC5)c4c3)cc2F)cc1C(F)(F)F [Compound P-0262, 2-[4-(3-cyclopropyl-1H-pyrazolo[3,4-b]pyridin-5-yl)-2-fluoro-phenyl]-N-[6-methoxy-5-(trifluoromethyl)-3-pyridyl]acetamide]
0.0001 to 10 µM: IC50 [1] | GI50 (BA/F3-FLT3-ITD + D835Y) | IC50 [2]

Cn1cc(Nc2ncc(-c3ccc(CC(=O)Nc4cncc(C(F)(F)F)c4)cc3F)cn2)cn1 [Compound P-0205, 2-[3-fluoro-4-[2-[(1-methylpyrazol-4-yl)amino]pyrimidin-5-yl]phenyl]-N-[5-(trifluoromethyl)-3-pyridyl]acetamide]
0.0001 to 10 µM: IC50 [1] | GI50 (BA/F3-FLT3-ITD + D835Y) | IC50 [2]

Cc1nn(C)cc1Nc1ncc(-c2ccc(CC(=O)Nc3cnc(C)c(C(F)(F)F)c3)cc2)cn1 [Compound P-0228, 2-[4-[2-[(1,3-dimethylpyrazol-4-yl)amino]pyrimidin-5-yl]phenyl]-N-[6-methyl-5-(trifluoromethyl)-3-pyridyl]acetamide]
0.0001 to 10 µM: IC50 [1] | GI50 (BA/F3-FLT3-ITD + D835Y) | IC50 [2]

CCn1cc(Nc2ncc(-c3cc(F)c(CC(=O)Nc4cnc(OC)c(C(F)(F)F)c4)cc3F)cn2)cn1 [Compound P-0247, 2-[4-[2-[(1-ethylpyrazol-4-yl)amino]pyrimidin-5-yl]-2,5-difluoro-phenyl]-N-[6-methoxy-5-(trifluoromethyl)-3-pyridyl]acetamide]
0.0001 to 10 µM: IC50 [1] | GI50 (BA/F3-FLT3-ITD + D835Y) | IC50 [2]

CCn1cc(Nc2ncc(-c3ccc(CC(=O)Nc4cc(C(F)(F)F)ccn4)c(F)c3)cn2)cn1 [Compound P-0255, 2-[4-[2-[(1-ethylpyrazol-4-yl)amino]pyrimidin-5-yl]-2-fluoro-phenyl]-N-[4-(trifluoromethyl)-2-pyridyl]acetamide]
0.0001 to 10 µM: IC50 [1] | GI50 (BA/F3-FLT3-ITD + D835Y) | IC50 [2]

COc1ncc(NC(=O)Cc2ccc(-c3cnc(Nc4cn[nH]c4C)nc3)cc2)cc1C(F)(F)F [Compound P-0221, N-[6-methoxy-5-(trifluoromethyl)-3-pyridyl]-2-[4-[2-[(5-methyl-1H-pyrazol-4-yl)amino]pyrimidin-5-yl]phenyl]acetamide]
0.0001 to 10 µM: IC50 [1] | GI50 (BA/F3-FLT3-ITD + D835Y) | IC50 [2]

COc1ncc(NC(=O)Cc2cc(F)c(-c3cnc(Nc4cnn(C)c4)nc3)cc2F)cc1C(F)(F)F [Compound P-0208, 2-[2,5-difluoro-4-[2-[(1-methylpyrazol-4-yl)amino]pyrimidin-5-yl]phenyl]-N-[6-methoxy-5-(trifluoromethyl)-3-pyridyl]acetamide]
0.0001 to 10 µM: IC50 [1] | GI50 (BA/F3-FLT3-ITD + D835Y) | IC50 [2]

COc1ncc(NC(=O)Cc2ccc(-c3cnc4[nH]c(-c5ccc(C#N)nc5)cc4c3)c(F)c2)cc1C(F)(F)F [Compound P-0014, 2-[4-[2-(6-cyano-3-pyridyl)-1H-pyrrolo[2,3-b]pyridin-5-yl]-3-fluoro-phenyl]-N-[6-methoxy-5-(trifluoromethyl)-3-pyridyl]acetamide]
0.0001 to 10 µM: IC50 [1] | GI50 (BA/F3-FLT3-ITD + D835Y) | IC50 [2]

COc1ncc(NC(=O)Cc2ccc(-c3cnc4[nH]nc(C5CC5)c4c3)cc2)cc1C(F)(F)F [Compound P-0263, 2-[4-(3-cyclopropyl-1H-pyrazolo[3,4-b]pyridin-5-yl)phenyl]-N-[6-methoxy-5-(trifluoromethyl)-3-pyridyl]acetamide]
0.0001 to 10 µM: IC50 [1] | GI50 (BA/F3-FLT3-ITD + D835Y) | IC50 [2]

O=C(Cc1ccc(-c2cnc(Nc3cnn(C4CC4)c3)nc2)cc1F)Nc1ccc(C(F)(F)F)nc1 [Compound P-0242, 2-[4-[2-[(1-cyclopropylpyrazol-4-yl)amino]pyrimidin-5-yl]-2-fluoro-phenyl]-N-[6-(trifluoromethyl)-3-pyridyl]acetamide]
0.0001 to 10 µM: IC50 [1] | GI50 (BA/F3-FLT3-ITD + D835Y) | IC50 [2]

Cc1ncc(NC(=O)Cc2ccc(-c3cnc(Nc4cnn(C5CC5)c4)nc3)cc2)cc1C(F)(F)F [Compound P-0232, 2-[4-[2-[(1-cyclopropylpyrazol-4-yl)amino]pyrimidin-5-yl]phenyl]-N-[6-methyl-5-(trifluoromethyl)-3-pyridyl]acetamide]
0.0001 to 10 µM: IC50 [1] | GI50 (BA/F3-FLT3-ITD + D835Y) | IC50 [2]

COCCn1cc(Nc2ncc(-c3ccc(CC(=O)Nc4cnc(OC)c(C(F)(F)F)c4)cc3)cn2)cn1 [Compound P-0271, 2-[4-[2-[[1-(2-methoxyethyl)pyrazol-4-yl]amino]pyrimidin-5-yl]phenyl]-N-[6-methoxy-5-(trifluoromethyl)-3-pyridyl]acetamide]
0.0001 to 10 µM: IC50 [1] | GI50 (BA/F3-FLT3-ITD + D835Y) | IC50 [2]

O=C(Cc1ccc(-c2cnc(Nc3cnn(C4CC4)c3)nc2)cc1)Nc1ccc(C(F)(F)F)cn1 [Compound P-0236, 2-[4-[2-[(1-cyclopropylpyrazol-4-yl)amino]pyrimidin-5-yl]phenyl]-N-[5-(trifluoromethyl)-2-pyridyl]acetamide]
0.0001 to 10 µM: IC50 [1] | GI50 (BA/F3-FLT3-ITD + D835Y) | IC50 [2]

CCn1cc(Nc2ncc(-c3ccc(CC(=O)Nc4cnc(OC)c(C(F)(F)F)c4)cc3F)cn2)cn1 [Compound P-0246, 2-[4-[2-[(1-ethylpyrazol-4-yl)amino]pyrimidin-5-yl]-3-fluoro-phenyl]-N-[6-methoxy-5-(trifluoromethyl)-3-pyridyl]acetamide]
0.0001 to 10 µM: IC50 [1] | GI50 (BA/F3-FLT3-ITD + D835Y) | IC50 [2]

Cc1ncc(NC(=O)Cc2ccc(-c3cnc(Nc4cnn(C(F)F)c4)nc3)cc2)cc1C(F)(F)F [Compound P-0210, 2-[4-[2-[[1-(difluoromethyl)pyrazol-4-yl]amino]pyrimidin-5-yl]phenyl]-N-[6-methyl-5-(trifluoromethyl)-3-pyridyl]acetamide]
0.0001 to 10 µM: IC50 [1] | GI50 (BA/F3-FLT3-ITD + D835Y) | IC50 [2]

CCn1cc(Nc2ncc(-c3ccc(CC(=O)Nc4cc(C(F)(F)F)ccn4)cc3)cn2)cn1 [Compound P-0250, 2-[4-[2-[(1-ethylpyrazol-4-yl)amino]pyrimidin-5-yl]phenyl]-N-[4-(trifluoromethyl)-2-pyridyl]acetamide]
0.0001 to 10 µM: IC50 [1] | GI50 (BA/F3-FLT3-ITD + D835Y) | IC50 [2]

CCn1cc(Nc2ncc(-c3ccc(CC(=O)Nc4cnc(Cl)c(C(F)(F)F)c4)c(F)c3)cn2)cn1 [Compound P-0260, N-[6-chloro-5-(trifluoromethyl)-3-pyridyl]-2-[4-[2-[(1-ethylpyrazol-4-yl)amino]pyrimidin-5-yl]-2-fluoro-phenyl]acetamide]
0.0001 to 10 µM: IC50 [1] | GI50 (BA/F3-FLT3-ITD + D835Y) | IC50 [2]
